The subject of assay [1] is chick dorsal root ganglia (sensory neurons). The experiment in a line: Chick dorsal root ganglion cultures and neurite outgrowth. In kind it is cell-based. The procedure:
Dorsal root ganglia were dissected from chick embryos of ten day gestation. Whole ganglion explants were cultured on thin layer Matrigel-coated 12 well plates with Liebovitz L15 plus high glucose media supplemented with 2 mM glutamine and 10% fetal calf serum, and also containing 10 μM cytosine β-D arabinofuranoside (Ara C) at 37° C. in an environment containing 5% CO2. Twenty four hours later, the DRGs were treated with various immunophilin ligands. Forty-eight hours after drug treatment, the ganglia were visualized under phase contrast or Hoffman Modulation contrast with a Zeiss Axiovert inverted microscope. Photomicrographs of the explants were made, and neurite outgrowth was quantitated. Neurites longer than the DRG diameter were counted as positive, with total number of neurites quanitated per each experimental condition. Three to four DRGs are cultured per well, and each treatment was performed in duplicate.
The data for these experiments for representative compounds are presented in the “ED50” column of Table III.

Another assay concerns the target FKBP12 (FKBP) (Homo sapiens, UniProt P62942). The experiment in a line: Ki test procedure: inhibition of peptidyl-prolyl isomerase (rotamase) activity, chymotrypsin-coupled assay. Type of assay: biochemical. To be noted: apparent Ki, substrate N-succinyl-Ala-Ala-Pro-Phe-p-nitroanilide. An excerpt:
As discussed above, the compounds of the present invention have an affinity, for the FK506 binding protein, particularly FKBP12. The inhibition of the prolyl peptidyl cis-trans isomerase activity of FKBP may be measured as an indicator of this affinity.
Inhibition of the peptidyl-prolyl isomerase (rotamase) activity of the inventive compounds can be evaluated by known methods described in the literature (Harding, et al., Nature, 1989, 341:758-760; Holt et al. J. Am. Chem. Soc., 115:9923-9938). The cis-trans isomerization of an alanine-proline bond in a model substrate, N-succinyl-Ala-Ala-Pro-Phe-p-nitroanilide, is monitored spectrophotometrically in a chymotrypsin-coupled assay, which releases paranitroanilide from the trans form of the substrate. The inhibition of this reaction caused by the addition of different concentrations of inhibitor is determined, and the data is analyzed as a change in first-order rate constant as a function of inhibitor concentration to yield the apparent Ki values. […]
The absorbance at 390 nm versus time is monitored for 90 seconds using a spectrophotometer and the rate constants are determined from the absorbance versus time data files. […]

Sequence of FKBP12 (FKBP) (P62942 whole entry, species assumed): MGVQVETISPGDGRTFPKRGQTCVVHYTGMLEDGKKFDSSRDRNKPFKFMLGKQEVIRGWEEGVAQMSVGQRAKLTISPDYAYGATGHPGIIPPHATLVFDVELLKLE

For the compound `CCC(C)(C)C(=O)C(=O)N1CSCC1C(=O)OCCCc1cccnc1` [Compound 2, 3-(3-pyridyl)-1-propyl(2S)-1-(3,3-dimethyl-1,2-dioxopentyl) -2-(4-thiazolidine) carboxylate], the “neurite outgrowth in sensory neurons (photomicrograph)” value in assay [1] (10 pM), in assay [1] (100 pM) and in assay [1] (10 nM) was “promoting neurite outgrowth” throughout. On FKBP12 (FKBP), the Ki came out at 0.638 µM.

For `CCC(C)(C)C(=O)C(=O)N1CSCC1C(=O)OCCCc1ccccc1` [Compound 1, 3-phenyl-1-propyl(2S)-1-(3,3-dimethyl-1,2-dioxopentyl)-2-(4-thiazolidine)carboxylate], the “neurite outgrowth in sensory neurons (photomicrograph)” value in assay [1] (1 pM), in assay [1] (10 pM) and in assay [1] (100 pM) was “promoting neurite outgrowth” throughout. Further, the Ki at FKBP12 (FKBP) is 0.215 µM.

(Values after patent US20030032635A1, “Heterocyclic esters and amides” (priority 1996, published 2003).)
